Where two headings read alike, the source gives them in different places.
Assays:
[1] = Stability of 1-mer conjugates in RPMI 1640+10% FCS (PAGE); assay type: in vitro ADME; details: up to 8 hrs, PAGE analysis
Description: Initially, the stability of the two neoglycoconjugates was assessed in RPMI 1640+10% FCS. […] In terms of cellular uptake, the po-linked conjugate at a dose of 1 μM was taken up rapidly in a progressive manner by Hep G2 cells in vitro to the extent of 24.75 pmoles/10^6 cells at 480 min. The rate of cellular uptake was next analyzed with respect to the administered dose of the conjugate. […] This amount doubled within the next 30 min and peaked at 25 pmoles/million cells at 480 min. […] While the administration of 4 μM conjugate led to a linear increase of conjugate uptake with respect to time, the rate at which cellular uptake occurred upon the administration of 8 μM conjugate rose sharply at 120 min.

[2] = tested on: Hep G2 cells; assay: Cellular uptake of 5FU 1-mer conjugates by Hep G2 cells; assay type: cell-based, human; details: 1 μM, 480 min
Description: Hep G2 cells were passaged into 2 cm^2 wells and grown in RPMI 1640 medium, which was supplemented with L-glutamine (10-040, CV) to a density of 0.3×10^6 to 0.4×10^6 cells per well (48-well cluster plate, Costar, Cambridge, Mass.). […] Then, an aliquot of the medium was saved for scintillation counting and the remainder of the medium aspirated from the well. The cells were washed with D-PBS (2×0.5 ml), treated with 0.25% trypsin (37° C., 2 minutes; trypsin prepared in HBSS with 1.0 mM EDTA) and suspended in fresh growth medium containing 10% FCS. The suspended cells were layered over silicon oil (0.5 ml) in a 1.7 ml conical microcentrifuge tube and pelleted by centrifugation at 14,000 rpm (12,000 g) for 30 seconds. The supernatant was carefully decanted and the cell pellet was lysed with 100 μl of a solution containing 0.5% NP 40, 100 mM sodium chloride, 14 mM Tris/HCl and 30% acetonitrile. The amount of radioactivity, and by inference the amount of neoglycoconjugate or oligomer associated with the cell lysate, was determined by scintillation counting.

[3] = target: T1, thymidylate synthase (TS) (Homo sapiens, UniProt P04818); assay: Thymidylate synthase activity in treated Hep G2 cells; assay type: cell-based; details: 1 μM, 96 hrs post treatment
T1 construct: endogenous in cells; host or cells: Hep G2
T1 sequence (P04818 2-313 limits assumed): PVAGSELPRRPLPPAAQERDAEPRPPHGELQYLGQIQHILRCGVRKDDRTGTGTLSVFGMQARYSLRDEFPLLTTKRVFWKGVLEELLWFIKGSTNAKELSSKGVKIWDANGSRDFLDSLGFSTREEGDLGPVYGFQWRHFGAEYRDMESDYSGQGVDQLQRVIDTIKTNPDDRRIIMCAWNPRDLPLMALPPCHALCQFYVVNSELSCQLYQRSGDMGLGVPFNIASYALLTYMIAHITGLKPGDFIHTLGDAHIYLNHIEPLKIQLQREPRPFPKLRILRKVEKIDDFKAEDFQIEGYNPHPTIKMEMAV
Description: Briefly, 10^5 Hep G2 or TSU cells were grown in culture for 48 h and then the medium was made to a concentration of 1 μM with either po 1-mer or unconjugated 5FdU. At regular intervals (24 hrs, 48 hrs, 72 hrs and 96 hrs) after treatment, the medium was removed and replaced with medium containing deoxyuridine/[^3H]-deoxyuridine mixtures. Cells were incubated at 37° C. for 30 min. Cell medium was then removed and precipitated with charcoal. The supernatant was then counted to determine the presence of [^3H]-H2O. The measurable release of [^3H] as [^3H]-H2O from deoxyuridine, 5′-monophosphate (dUMP) substrate reflects thymidylate synthase activity.

[4] = target: T2, thymidylate synthetase (TS) (Mus musculus, UniProt P07607); assay: Thymidylate synthetase activity in mouse liver extract ([5-3H]-dUMP tritium release); assay type: biochemical, CD-1 mouse
T2 construct: from tissue; host or cells: CD-1 mouse liver, supernatant of homogenate
T2 sequence (P07607 whole entry): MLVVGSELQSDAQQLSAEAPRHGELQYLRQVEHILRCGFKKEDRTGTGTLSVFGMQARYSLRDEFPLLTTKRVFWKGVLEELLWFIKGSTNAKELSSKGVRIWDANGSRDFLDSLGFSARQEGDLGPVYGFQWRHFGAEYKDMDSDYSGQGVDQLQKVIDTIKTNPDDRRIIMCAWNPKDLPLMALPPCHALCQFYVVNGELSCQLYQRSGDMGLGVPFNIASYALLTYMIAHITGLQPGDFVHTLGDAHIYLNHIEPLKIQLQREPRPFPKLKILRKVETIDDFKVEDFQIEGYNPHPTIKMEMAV
Description: A CD-1 mouse (Charles River, Wilmington, Mass.) was sacrificed and the liver removed. Approximately one gram of the tissue was subsequently washed in DPBS (Mediatech, Herndon, Va.) and placed in 3 volumes of buffer H. The tissue was then homogenized with a Dounce homogenizer and subsequently sonicated by three 15-second bursts followed by 1 min on ice. The tissue extract was then centrifuged for 10 min at 4,000 g and the resultant supernatant was spun for 20 min at 7,000 g. Three equal aliquots of this supernatant were then added to 0.9 μCi aliquots of 2′-Deoxyuridine 5′-monophosphate, diammonium salt, [5-^3H]. At this point, 5-Fluoro-2′-deoxyuridine 5′-monothiophosphate was added to one aliquot, 5-Fluoro-2′-deoxyuridine 5′-monophosphate was added to a second aliquot, and one aliquot was left untreated. The three samples were incubated at 37° C. for 30 min and precipitated with charcoal. The resultant supernatant was centrifuged at 1,600 g for 10 min. Aliquots of each sample were then counted using a Beckman scintillation counter. Percent (%) inhibition is expressed as follows: […]
These assays determined the ability of either 10 nM FdUMP (phosphodiester substrate) or FdUMPS (phosphorothioate substrate) to inhibit thymidylate synthetase (TS) activity. The objective of this assay was to determine the ability of TS to convert [5-^3H]-dUMP to ^3H-H2O.
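For % injected dose in BLADDER in this document: male CD-1 mice given radiolabeled test agent intravenously, organs removed at each time point and dissolved, radioactivity per organ measured by scintillation counting with efficiency correction.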
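For % injected dose in BLOOD in this document: male CD-1 mice given radiolabeled test agent intravenously, organs removed at each time point and dissolved, radioactivity per organ measured by scintillation counting with efficiency correction.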
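For % injected dose in HEART in this document: male CD-1 mice given radiolabeled test agent intravenously, organs removed at each time point and dissolved, radioactivity per organ measured by scintillation counting with efficiency correction.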
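For % injected dose in KIDNEY in this document: male CD-1 mice given radiolabeled test agent intravenously, organs removed at each time point and dissolved, radioactivity per organ measured by scintillation counting with efficiency correction.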

## CC(=O)N[C@H]1[C@H](OCCCCCCNC(=O)CC[C@H](NC(=O)CC[C@H](NC(=O)[C@H](Cc2ccc(O)cc2)NC(=O)C2CCC(CN3C(=O)CC(SCCCCCCOP(O)(=S)OC[C@H]4O[C@@H](n5cc(F)c(=O)[nH]c5=O)C[C@@H]4O)C3=O)CC2)C(=O)NCCCCCCO[C@@H]2O[C@H](CO)[C@H](O)[C@H](O)[C@H]2NC(C)=O)C(=O)NCCCCCCO[C@@H]2O[C@H](CO)[C@H](O)[C@H](O)[C@H]2NC(C)=O)O[C@H](CO)[C@H](O)[C@@H]1O (some centres unmarked) [ps 1-mer, YEE(ahGalNAc)3-SMCC-psFU]
[1]
  stability in media containing 10% FCS: stable
[2]
  cellular uptake: 24.98 pmoles/10^6 cells

## O=c1[nH]c(=O)n([C@H]2C[C@H](O)[C@@H](CO)O2)cc1F [5FdU, 5-fluoro-2′-deoxyuridine]
[3]
  reduction of TS activity: approximately 20%
15 MIN after tail vein i.v.
  % injected dose in BLADDER: 0.91 ± 0.07%
  % injected dose in BLOOD: 0.03 ± 0.02%
  % injected dose in HEART: 0.21 ± 0.13%
  % injected dose in KIDNEY: 0.42 ± 0.28%
  % injected dose in LG INT: 1.09 ± 0.25%
  % injected dose in LIVER: 9.56 ± 3.83%
  % injected dose in LUNGS: 0.17 ± 0.07%
  % injected dose in MUSCLE: 9.29 ± 4.9%
  % injected dose in SM INT: 0.7 ± 0.04%
  % injected dose in SPLEEN: 0.11 ± 0.044%
15 MIN after tail vein i.v., listed as unconjugated 5FdU
  % injected dose in LIVER: less than 10%
30 MIN after tail vein i.v.
  % injected dose in BLADDER: 2.3 ± 1.58%
  % injected dose in BLOOD: .008 ± .0025%
  % injected dose in HEART: 0.03 ± .004%
  % injected dose in KIDNEY: 0.38 ± 0.3%
  % injected dose in LG INT: 0.37 ± 0.19%
  % injected dose in LIVER: 8.8 ± 1.23%
  % injected dose in LUNGS: 0.05 ± 0.006%
  % injected dose in MUSCLE: 3.43 ± 1.06%
  % injected dose in SM INT: 0.61 ± 0.36%
  % injected dose in SPLEEN: 0.19 ± 0.26%
60 MIN after tail vein i.v.
  % injected dose in BLADDER: 2.99 ± 1.01%
  % injected dose in BLOOD: .007 ± .0023%
  % injected dose in HEART: 0.28 ± 0.11%
  % injected dose in KIDNEY: 0.84 ± 0.31%
  % injected dose in LG INT: 1.04 ± 0.2%
  % injected dose in LIVER: 4.35 ± 1.35%
  % injected dose in LUNGS: 0.98 ± 0.3%
  % injected dose in MUSCLE: 22.84%
  % injected dose in SM INT: 3.57 ± 1.3%
  % injected dose in SPLEEN: 0.57 ± 0.18%
240 MIN after tail vein i.v.
  % injected dose in BLADDER: 0.010 ± .015%
  % injected dose in BLOOD: 0.56 ± 0.28%
  % injected dose in HEART: 0.32 ± 0.10%
  % injected dose in KIDNEY: 0.44 ± 0.12%
  % injected dose in LG INT: 1.61 ± 0.59%
  % injected dose in LIVER: 3.97 ± 0.37%
  % injected dose in LUNGS: 1.03 ± 0.39%
  % injected dose in MUSCLE: 46.56%
  % injected dose in SM INT: 4.19 ± 1.18%
  % injected dose in SPLEEN: 0.38 ± 0.04%
480 MIN after tail vein i.v.
  % injected dose in BLADDER: .001 ± .0006%
  % injected dose in BLOOD: 0.23 ± 0.14%
  % injected dose in HEART: 0.06 ± .02%
  % injected dose in KIDNEY: 0.13 ± .044%
  % injected dose in LG INT: 0.35 ± 0.09%
  % injected dose in LIVER: 1.25 ± 0.33%
  % injected dose in LUNGS: 0.08 ± 0.04%
  % injected dose in MUSCLE: 7.9 ± 1.64%
  % injected dose in SM INT: 1.37 ± 0.7%
  % injected dose in SPLEEN: 0.09 ± 0.05%

## O=c1[nH]c(=O)n([C@H]2C[C@H](O)[C@@H](COP(O)(O)=S)O2)cc1F [FdUMPS, 5-Fluoro-2′-deoxyuridine 5′-monothiophosphate]
[4]; read-out: Percent Inhibition of Thymidylate Synthetase Activity, 10 nM inhibitor, 1 μM dUMP
  inhibition at 0.01 µM: 27%
[4]; read-out: Percent Inhibition of Thymidylate Synthetase Activity, 10 nM inhibitor, 10 μM dUMP
  inhibition at 0.01 µM: 13%

## O=c1[nH]c(=O)n([C@H]2C[C@H](O)[C@@H](COP(=O)(O)O)O2)cc1F [FdUMP, 5-Fluoro-2′-deoxyuridine 5′-monophosphate]
[4]; 10 nM
  biological activity relative to FdUMPS: approximately twice
[4]; 10 nM inhibitor, 1 μM dUMP, read-out: Percent Inhibition of Thymidylate Synthetase Activity
  inhibition at 0.01 µM: 48%
[4]; 10 nM inhibitor, 10 μM dUMP, read-out: Percent Inhibition of Thymidylate Synthetase Activity
  inhibition at 0.01 µM: 28%
